The test concerns the target T1, human NPP3 (Homo sapiens, UniProt O14638).
T1 sequence (O14638 1-875): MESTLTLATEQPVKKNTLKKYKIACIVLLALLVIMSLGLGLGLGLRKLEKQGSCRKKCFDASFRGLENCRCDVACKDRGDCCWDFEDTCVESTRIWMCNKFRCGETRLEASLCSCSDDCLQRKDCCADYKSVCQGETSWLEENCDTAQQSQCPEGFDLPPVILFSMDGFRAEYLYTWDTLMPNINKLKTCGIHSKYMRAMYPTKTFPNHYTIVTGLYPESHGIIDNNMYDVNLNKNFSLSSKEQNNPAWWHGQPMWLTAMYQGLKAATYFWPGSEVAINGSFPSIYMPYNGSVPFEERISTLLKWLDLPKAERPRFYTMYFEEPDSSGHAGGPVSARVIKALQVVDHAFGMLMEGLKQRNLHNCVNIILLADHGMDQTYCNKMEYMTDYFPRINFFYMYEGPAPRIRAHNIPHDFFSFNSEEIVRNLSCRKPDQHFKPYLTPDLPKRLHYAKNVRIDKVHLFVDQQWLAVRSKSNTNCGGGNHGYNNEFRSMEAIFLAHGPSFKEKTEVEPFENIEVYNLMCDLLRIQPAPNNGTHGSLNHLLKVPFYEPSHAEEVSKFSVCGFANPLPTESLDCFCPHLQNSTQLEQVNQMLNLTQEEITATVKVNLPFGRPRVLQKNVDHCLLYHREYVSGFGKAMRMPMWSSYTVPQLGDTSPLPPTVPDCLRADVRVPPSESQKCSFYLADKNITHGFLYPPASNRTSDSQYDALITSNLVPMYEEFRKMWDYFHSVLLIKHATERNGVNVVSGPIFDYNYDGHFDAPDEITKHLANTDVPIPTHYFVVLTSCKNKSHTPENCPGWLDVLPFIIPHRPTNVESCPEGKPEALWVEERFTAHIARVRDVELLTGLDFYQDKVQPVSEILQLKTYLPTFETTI
Kind of test: NPP3 hydrolysis assay. The class given is in vitro ADME. Conditions: 100 μM ATP (100% reference).

Molecules are shown by their SMILES.

This note sets out measurements from publication PMC4358770 (Journal of medicinal chemistry, 2010).

With `Nc1ncnc2c1ncn2[C@@H]1O[C@H](COP(=O)(O)OP(=O)(O)OP(=O)(O)O)[C@@H](O)[C@H]1O` [ATP], the “hydrolysis rate by NPP3” value is on record as 245 nmol nucl·min^−1·mg protein^−1.
